biological target: KRAS G12C (Homo sapiens (Human), UniProt P01116, C118A/G12C); experiment: 2 h coupled exchange assay; format: biochemical; settings: Avg 2 h Coupled exchange IC50, 2 h compound pre-incubation
Experimental: The term “2 h coupled exchange assay” or “20 h coupled exchange assay” as used herein refers to the assay described in the Section entitled “BIOLOGICAL EVALUATION.”

**Q.** Which IC50 does the source give for `C=CC(=O)N1CC2(CCN(c3nc4c(c(-c5cc(O)ccc5C)c3F)COC(C)(C)C4)C2)C1` (single isomer, unassigned) [Example 14-61, (M)-1-(6-(3-fluoro-4-(5-hydroxy-2-methylphenyl)-7,7-dimethyl-7,8-dihydro-5H-pyrano[4,3-b]pyridin-2-yl)-2,6-diazaspiro[3.4]octan-2-yl)-2-propen-1-one] here?
**A.** 76800 nM

**Q.** `C=CC(=O)N1CC2(CCN(c3nc4c(c(-c5ncccc5F)c3C#N)CC[C@@H](c3scnc3C)C4)C2)C1` [Example 23-59, (7R)-4-(3-fluoro-2-pyridinyl)-7-(4-methyl-1,3-thiazol-5-yl)-2-(2-(2-propenoyl)-2,6-diazaspiro[3.4]octan-6-yl)-5,6,7,8-tetrahydro-3-quinolinecarbonitrile] was tested. Which IC50 did it give?
**A.** 164 nM

**Q.** For `C=CC(=O)N1CC2(CCN(c3nc4c(c(-c5cccc6cc(O)ccc56)c3C)COC(C)(C)C4)C2)C1` (single isomer, unassigned) [Example 14-45, (M)-1-(6-(4-(6-hydroxy-1-naphthalenyl)-3,7,7-trimethyl-7,8-dihydro-5H-pyrano[4,3-b]pyridin-2-yl)-2,6-diazaspiro[3.4]octan-2-yl)-2-propen-1-one], which IC50 is on record?
**A.** 7480 nM

**Q.** `C=CC(=O)N1CC2(CCN(c3nc4c(c(-c5c(C)ccc6cnn(C)c56)c3C)COC(C)(C)C4)C2)C1` (single isomer, unassigned) [Example 14-100, (M)-1-(6-(4-(1,6-dimethyl-1H-indazol-7-yl)-3,7,7-trimethyl-7,8-dihydro-5H-pyrano[4,3-b]pyridin-2-yl)-2,6-diazaspiro[3.4]octan-2-yl)-2-propen-1-one] was tested. Which IC50 did it give?
**A.** 602 nM

**Q.** `C=CC(=O)N1CC2(CCN(c3nc4c(c(-c5cc(O)ccc5C)c3F)COC(C)(C)C4)C2)C1` [Example 14-53, 1-(6-(3-fluoro-4-(5-hydroxy-2-methylphenyl)-7,7-dimethyl-7,8-dihydro-5H-pyrano[4,3-b]pyridin-2-yl)-2,6-diazaspiro[3.4]octan-2-yl)-2-propen-1-one] was tested. Which IC50 did it give?
**A.** 360 nM

**Q.** `C=CC(=O)N1CC2(CCN(c3nc4c(c(-c5ccc(F)c6sc(N)nc56)c3C)COC(C)(C)C4)C2)C1` [Example 14-27, 1-(6-(4-(2-amino-7-fluoro-1,3-benzothiazol-4-yl)-3,7,7-trimethyl-7,8-dihydro-5H-pyrano[4,3-b]pyridin-2-yl)-2,6-diazaspiro[3.4]octan-2-yl)-2-propen-1-one] was tested. Which IC50 did it give?
**A.** 164 nM

**Q.** With `C=CC(=O)N1CC2(CCN(c3nc4cc(-c5ocnc5C)ccc4c(-c4ccccc4Cl)c3C#N)C2)C1` [Example 17-9, 4-(2-chlorophenyl)-7-(4-methyl-1,3-oxazol-5-yl)-2-(2-(2-propenoyl)-2,6-diazaspiro[3.4]octan-6-yl)-3-quinolinecarbonitrile] as the molecule, how does the IC50 read?
**A.** 722 nM

**Q.** How did the IC50 turn out when `C=CC(=O)N1CC2(CCN(c3nc4c(c(-c5c(C)c(Cl)cc6cnn(C)c56)c3F)COC(C)(C)C4)C2)C1` (single isomer, unassigned) [Example 14-78, (M)-1-(6-(4-(5-chloro-1,6-dimethyl-1H-indazol-7-yl)-3-fluoro-7,7-dimethyl-7,8-dihydro-5H-pyrano[4,3-b]pyridin-2-yl)-2,6-diazaspiro[3.4]octan-2-yl)-2-propen-1-one] was run?
**A.** 23 nM

same assay, conditions: Avg 2 h Coupled exchange IC50, 2 h compound pre-incubation, SOS-mediated nucleotide exchange

**Q.** For `C=CC(=O)N1CC2(CCN(c3nc4c(c(-c5c(C)ccc6[nH]ncc56)c3C#N)[C@H]3CC[C@@H]4C3)C2)C1` (single isomer, unassigned) [Example 14-8], which IC50 is on record?
**A.** 2570 nM

**Q.** For `Cc1ccc2[nH]ncc2c1-c1c(C#N)c(N2CCC3(CN(C(=O)/C=C/CO)C3)C2)nc2c1CCC(C)(C)C2` [Example 13-9, 2-(2-((2E)-4-hydroxy-2-butenoyl)-2,6-diazaspiro[3.4]octan-6-yl)-7,7-dimethyl-4-(5-methyl-1H-indazol-4-yl)-5,6,7,8-tetrahydro-3-quinolinecarbonitrile], which IC50 is on record?
**A.** 324 nM

**Q.** With `C=CC(=O)N1CC2(CCN(c3nc4c(c(-c5c(C)ccc6cnn(C)c56)c3Cl)COC(C)(C)C4)C2)C1` (single isomer, unassigned) [Example 2-87, (M)-1-(6-(3-chloro-4-(1,6-dimethyl-1H-indazol-7-yl)-7,7-dimethyl-7,8-dihydro-5H-pyrano[4,3-b]pyridin-2-yl)-2,6-diazaspiro[3.4]octan-2-yl)-2-propen-1-one] as the molecule, how does the IC50 read?
**A.** 115 nM

**Q.** For `C=CC(=O)N1CC2(CCN(c3nc4c(c(-c5cc(Cl)cc6ccn(C)c56)c3C#N)COC(C)(C)C4)C2)C1` (single isomer, unassigned) [Example 12-10, (M)-4-(5-chloro-1-methyl-1H-indol-7-yl)-7,7-dimethyl-2-(2-(2-propenoyl)-2,6-diazaspiro[3.4]octan-6-yl)-7,8-dihydro-5H-pyrano[4,3-b]pyridine-3-carbonitrile], which IC50 is on record?
**A.** 7420 nM

**Q.** With `C=CC(=O)N1CC2(C1)CN(c1cc3ccccc3c(-c3c(C)ccc4[nH]ncc34)c1C#N)C2` [Example 1-34, 1-(5-methyl-1H-indazol-4-yl)-3-(6-(2-propenoyl)-2,6-diazaspiro[3.3]heptan-2-yl)-2-naphthalenecarbonitrile] as the molecule, how does the IC50 read?
**A.** 823 nM

**Q.** How did the IC50 turn out when `C=CC(=O)N1CC2(CCN(c3nc4c(c(-c5c(C)ccc6cnn(C)c56)c3C#N)CCC3CC43)C2CO)C1` (stereo not drawn) [Example 13-63] was run?
**A.** 145 nM

**Q.** How did the IC50 turn out when `C=CC(=O)N1CC2(CCN(c3nc4c(c(-c5ccccc5F)c3C#N)CCCC4)C2)C1` [Example 2-7, 4-(2-fluorophenyl)-2-(2-(2-propenoyl)-2,6-diazaspiro[3.4]octan-6-yl)-5,6,7,8-tetrahydro-3-quinolinecarbonitrile] was run?
**A.** 2020 nM

**Q.** For `C=CC(=O)N1CC2(CCN(c3nc4c(c(-c5ccc(F)c6sc(N)nc56)c3C)CCC(C)(C)C4)C2)C1` (single isomer, unassigned) [Example 2-18], which IC50 is on record?
**A.** 5240 nM

**Q.** How did the IC50 turn out when `C=CC(=O)N1CC2(C1)CN(c1nc3c(c(-c4c(C)ccc5cnn(C)c45)c1C#N)COC(C)(C)C3)CC2(F)F` [Example 13-47, 2-(8,8-difluoro-2-(2-propenoyl)-2,6-diazaspiro[3.4]octan-6-yl)-4-(1,6-dimethyl-1H-indazol-7-yl)-7,7-dimethyl-7,8-dihydro-5H-pyrano[4,3-b]pyridine-3-carbonitrile] was run?
**A.** 298 nM

**Q.** With `C=CC(=O)N1CC2(CCN(c3nc4c(c(-c5c(C)ccc6[nH]ncc56)c3C#N)CN(C)CC4)C2)C1` [Example 13-22, 6-methyl-4-(5-methyl-1H-indazol-4-yl)-2-(2-(2-propenoyl)-2,6-diazaspiro[3.4]octan-6-yl)-5,6,7,8-tetrahydro-1,6-naphthyridine-3-carbonitrile] as the molecule, how does the IC50 read?
**A.** 259 nM

**Q.** With `C=CC(=O)N1CC2(CCN(c3nc4c(c(-c5cc(O)cc6ccccc56)c3C#N)COC(C)(C)C4)C2)C1` (single isomer, unassigned) [Example 13-42, (M)-4-(3-hydroxy-1-naphthalenyl)-7,7-dimethyl-2-(2-(2-propenoyl)-2,6-diazaspiro[3.4]octan-6-yl)-7,8-dihydro-5H-pyrano[4,3-b]pyridine-3-carbonitrile] as the molecule, how does the IC50 read?
**A.** 23300 nM

**Q.** Which IC50 does the source give for `C=CC(=O)N1CC2(CCN(c3nc4c(c(-c5c(F)cccc5[C@@H](C)O)c3C#N)C[C@H]3C[C@@H]4C3(C)C)C2)C1` (single isomer, unassigned) [Example 12-37] here?
**A.** 1440 nM

same assay, conditions: read-out: Avg 2 h Coupled exchange IC50, 2 h compound pre-incubation, SOS-mediated nucleotide exchange

**Q.** For “(M)-1-(6-(4-(5-chloro-1-methyl-1H-indazol-7-yl)-3,7,7-trimethyl-7,8-dihydro-5H-pyrano[4,3-b]pyridin-2-yl)-2,6-diazaspiro[3.4]octan-2-yl)-2-propen-1-one [Example 2-33]”, which IC50 is on record?
**A.** 17400 nM

Source: patent US20240059703A1 (AMGEN INC., priority 2021, published 2024)
